The assay addresses Gamma-aminobutyric acid receptor subunit alpha-1 (Rattus norvegicus, UniProt P62813).

For one compound, Ki results are on record in BindingDB's records for doi:10.1073/pnas.74.9.3805 (1977).

The structures appear in SMILES notation. Where “and” joins values, the source holds several entries; their conditions need not be identical. Equal values may be shown once.

Gamma-aminobutyric acid receptor subunit alpha-1, sequence (P62813 whole entry): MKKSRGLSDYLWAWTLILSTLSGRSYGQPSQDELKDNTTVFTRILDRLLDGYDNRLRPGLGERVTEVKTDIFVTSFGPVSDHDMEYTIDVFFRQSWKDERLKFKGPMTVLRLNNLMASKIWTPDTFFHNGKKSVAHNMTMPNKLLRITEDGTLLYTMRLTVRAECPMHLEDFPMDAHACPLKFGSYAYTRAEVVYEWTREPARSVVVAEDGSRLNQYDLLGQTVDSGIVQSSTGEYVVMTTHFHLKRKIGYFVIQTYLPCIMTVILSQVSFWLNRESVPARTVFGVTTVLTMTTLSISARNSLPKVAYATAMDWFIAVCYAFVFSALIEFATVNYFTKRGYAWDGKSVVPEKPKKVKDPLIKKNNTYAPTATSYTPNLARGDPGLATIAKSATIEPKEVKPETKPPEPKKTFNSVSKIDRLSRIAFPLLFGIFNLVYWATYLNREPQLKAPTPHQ

Regarding `O=C1CN=C(c2ccccc2Cl)c2cc([N+](=O)[O-])ccc2N1` [5-(2-chlorophenyl)-7-nitro-1,3-dihydro-2H-1,4-benzodiazepin-2-one], the inhibitory constant (Ki) was 5.08 µM and 2.9 µM and 7.9 µM.

What is called Ki is the equilibrium dissociation constant of an inhibitor or competing ligand from its target.
